The source made the active and inactive calls. The calls are words filed in the database; no cut-off is given here. Peptide text beside a SMILES is read from it.
Legend:
Stomach = assay: Vasodilatory activity in rat stomach smooth muscle assessed as muscle relaxation; type: functional, tissue-based
Cavia porcellus = organism: Cavia porcellus; assay: Vasodilatory activity in guinea pig trachea assessed as muscle relaxation; type: functional, tissue-based
Canis familiaris = assay: Vasodilatory activity in anesthetized dog assessed as effect on blood flow; type: functional, organism-based; details: Canis lupus familiaris

For `COC(=O)[C@H](Cc1ccc(O)cc1)NC(=O)[C@H](CC(N)=O)NC(=O)[C@H](CC(=O)O)NC(=O)[C@@H](NC(=O)[C@H](Cc1ccccc1)NC(=O)[C@@H](NC(=O)[C@H](C)NC(=O)[C@H](CC(=O)O)NC(=O)[C@H](CO)NC(=O)[C@@H](N)Cc1cnc[nH]1)C(C)C)[C@@H](C)O` (H-HSDAVFTDNY-OMe), the Activity (Stomach) was “Active” and the Activity (Cavia porcellus) was “Active”.

In the case of H-AVKKYLNSILN-NH2, the Activity (Stomach) was “Active”, the Activity (Canis familiaris) was “Active” and the Activity (Cavia porcellus) was “Active”.

For H-KQMAVKKYLNSILN-NH2, the Activity (Canis familiaris) was “Active”.

With H-RKQMAVKKYLNSILN-NH2 the Activity (Canis familiaris) was “inactive”.

Reference: ChEMBL document CHEMBL3271952, “Synthesis and pharmacological properties of the N-terminal decapeptide of the vasoactive intestinal peptide (VIP)” (J Med Chem, 1977)
